Experiment: Storage stability of packed crystalline forms (water content and polymorphic conversion by X-ray powder diffraction)
Type: physicochemical
From the text: The crystalline form of O-desmethyl-venlafaxine succinate obtained in example-5 or example-6 were stored under nitrogen atmosphere and packed in a non-permeable bag tied with a thread, keeping primary packing inside a black color polyethylene bag containing oxygen busters and sealing it, placing above the non-permeable bag inside a triple laminated bag containing oxygen busters and sealing it, and placing the sealed triple laminated bag inside a closed high density polyethylene (HDPE) container.

[1] = storage for 3 months at 25° C. and a relative humidity of 60%
[2] = storage for 3 months at 40° C. and a relative humidity of 75%

water content after storage [1] | water content after storage [2] | Compound | crystalline Form-I or Form-II detected by X-ray powder diffraction after storage [1] | crystalline Form-I or Form-II detected by X-ray powder diffraction after storage [2]
≤ 1.5% | ≤ 1.5% | CN(C)CC(c1ccc(O)cc1)C1(O)CCCCC1.O=C(O)CCC(=O)O (centres unmarked) [Form “Z1”, O-desmethyl-venlafaxine succinate] | no detectable amount of crystalline Form-I or Form-II | no detectable amount of crystalline Form-I or Form-II
≤ 3.0% | ≤ 3.0% | CN(C)CC(c1ccc(O)cc1)C1(O)CCCCC1.O=C(O)CCC(=O)O (centres unmarked) [Form “Z”, O-desmethyl-venlafaxine succinate] | no detectable amount of crystalline Form-I or Form-II | no detectable amount of crystalline Form-I or Form-II

From US8933123B2, “Polymorphic forms of O-desmethyl-venlafaxine succinate” (Cadila Healthcare Limited, priority 2010, dated 2015)
